The results in this text go back to patent US11414379B2, “SPAK kinase inhibitors as neuroprotective agents” (United States Government as represented by the Department …, priority 2018, dated 2022).

Data set [1] deals with rats post-IVH (CSF hypersecretion). Nature of the data set: Rate of CSF production, post-hemorrhagic hydrocephalus model. It is filed as in vivo, rat. To be noted: ICV treatment for 48 hr. As to the method:
All animal experiments were approved by the Institutional Animal Care and Use Committee (IACUC) of the Yale University, and in accordance with the guidelines and regulations in the NIH Guide for the Care and Use of Laboratory Animals. Male Wistar rats (Harlan, Indianapolis, Ind., USA), age 8 weeks (220-230 g), were anesthetized (60 mg/kg ketamine plus 7.5 mg/kg xylazine, IP) and allowed to breathe room air spontaneously. Body temperature was maintained at 37±1° C. (Harvard Apparatus, Holliston, Mass., USA) throughout the course of the experiments. PHH was modeled using a modified protocol based on previously described methods (Karimy et al. (2015) Nature medicine 23: 997-1003; Simard et al. (2011) Transl Stroke Res 2: 227-231). […]
Rates of CSF production were measured using the method we recently published (Karimy et al. (2015) Nature medicine 23: 997-1003). […] The volume (V) of CSF that forms at a given timepoint is calculated as: V (mm^3)=π·r^2·d, where r is the radius of the capillary tube and d is the distance CSF traveled within the capillary. The rate of CSF formation (μL/min) can be calculated from the slope of the volume-time relationship. A baseline rate of spontaneous CSF secretion (no drug infusion) was calculated over 30 minutes prior to drug infusion, then compared to the calculated rate of CSF formation following 30 minutes of ZT-1a infusion. […]

The nature of data set [2]: ZT-1a content in brain and plasma, sham vs tMCAO mice, LC-MS/MS. The settings on record: 2 hrs post-injection. It counts as in vivo, mouse. The procedure: ZT-1a content in brain homogenates and plasma was assayed at the University of Pittsburgh Small Molecule Biomarker Core, using liquid chromatography-tandem mass spectrometry (LC-MS/MS). C57BL/6j mice (normotensive male, 11 weeks old) at 3 hr post Sham surgery or tMCAO were intraperitoneally injected with 5 mg/kg ZT-1a. At 2 hr post injection, blood was collected into heparin-treated EP tubes by a cardiac puncture. After a brief cardiac perfusion with ice-cold normal saline, brain tissues (contralateral and ipsilateral hemispheres) were collected. Plasma samples were prepared by centrifugation of whole blood for 10 min at 1,500 g using a refrigerated centrifuge. Brain tissues and plasma samples were diluted, and protein was precipitated with acetonitrile prior to detection of ZT-1a with a triple quad mass spectrometer. Glyburide was used as the internal standard. Samples were then injected by autosampler and ZT-1a was eluted from a Waters Acquity UPLC BEH C18, 1.7 um, 2.1×100 mm reversed-phase column with a water (with 0.1% formic acid) and acetonitrile (with 0.1% formic acid) gradient.

The next data set deals with AMPK (hum). Description: Kinase panel (Dundee profiling). It counts as biochemical, human. The procedure:
The kinase selectivity of ZT-1a was further assessed using standard radioisotopic enzymatic assays against a panel of 140 recombinant kinases (Dundee profiling, Table 2) (Bain et al. (2007) The Biochemical journal 408, 297-315). ZT-1a at a concentration of 10 μM inhibited only MAPKAP-K2 activity 85±7% compared to DMSO control, representing high kinase selectivity.
Referring to Table 2, ZT-1a was tested at 10 and 1 μM against a panel of 140 recombinant kinases in an enzymatic activity-based assay performed by the International Centre for Kinase Profiling in the MRC Protein Phosphorylation and Ubiquitylation Unit. Values represent % residual kinase activity (mean+/−SEM, n=3). Kinases labelled with an asterick* are inhibited ≥50% by ZT-1a.

Turning to `Cc1cc(C(C#N)c2ccc(Cl)cc2)c(Cl)cc1NC(=O)c1cc(Cl)ccc1O` (centres unmarked) [ZT-1a, 5-chloro-N-(5-chloro-4-((4-chlorophenyl)(cyano)methyl)-2-methylphenyl)-2-hydroxy-benzamide], the “decrease of post-IVH CSF hypersecretion” value in data set [1] is listed as around 57±6.2%. The “brain concentrations, stroke mice vs sham-controls” value in data set [2] (5 mg/kg i.p. at 3 hrs after tMCAO, n=10-11) is around 1.8 fold. The “plasma bioavailability, sham control vs ischemic stroke mice” value in data set [2] (5 mg/kg i.p., p=0.29) is “no significant difference”. The results for the “% residual kinase activity” value with AMPK (hum) (1 μM) and in the data set on AMPK (hum) (10 μM) were 126 ± 4% and 108 ± 4%, respectively.
